According to publication PMC4046262 (Scientific Reports, 2014):

Legend:
[1] = biological target: AtCRY1 PHR (Arabidopsis thaliana, UniProt Q43125); assay: biochemical
[2] = biological target: full-length (wild-type) AtCRY1 (Arabidopsis thaliana, UniProt Q43125); details: FAD-bound full-length protein; details only in supplement
full-length (wild-type) AtCRY1, sequence (Q43125 whole entry): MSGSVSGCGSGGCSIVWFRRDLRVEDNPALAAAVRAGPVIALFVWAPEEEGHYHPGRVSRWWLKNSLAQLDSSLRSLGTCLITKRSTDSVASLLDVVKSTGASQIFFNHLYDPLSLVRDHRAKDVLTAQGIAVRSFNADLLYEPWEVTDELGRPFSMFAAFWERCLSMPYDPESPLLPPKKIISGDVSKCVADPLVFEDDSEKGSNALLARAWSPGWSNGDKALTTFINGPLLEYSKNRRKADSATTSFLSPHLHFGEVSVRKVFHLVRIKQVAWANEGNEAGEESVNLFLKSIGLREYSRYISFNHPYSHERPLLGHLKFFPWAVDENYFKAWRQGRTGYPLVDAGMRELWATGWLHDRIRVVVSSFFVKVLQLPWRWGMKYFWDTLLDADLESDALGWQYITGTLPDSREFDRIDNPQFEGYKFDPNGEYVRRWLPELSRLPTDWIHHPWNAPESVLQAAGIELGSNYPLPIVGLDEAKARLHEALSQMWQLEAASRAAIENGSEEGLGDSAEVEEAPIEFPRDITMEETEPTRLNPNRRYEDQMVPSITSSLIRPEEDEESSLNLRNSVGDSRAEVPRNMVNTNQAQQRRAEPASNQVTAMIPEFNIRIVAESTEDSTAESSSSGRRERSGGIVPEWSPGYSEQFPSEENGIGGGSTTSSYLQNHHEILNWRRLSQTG

AtCRY1 PHR, sequence (Q43125 1-509): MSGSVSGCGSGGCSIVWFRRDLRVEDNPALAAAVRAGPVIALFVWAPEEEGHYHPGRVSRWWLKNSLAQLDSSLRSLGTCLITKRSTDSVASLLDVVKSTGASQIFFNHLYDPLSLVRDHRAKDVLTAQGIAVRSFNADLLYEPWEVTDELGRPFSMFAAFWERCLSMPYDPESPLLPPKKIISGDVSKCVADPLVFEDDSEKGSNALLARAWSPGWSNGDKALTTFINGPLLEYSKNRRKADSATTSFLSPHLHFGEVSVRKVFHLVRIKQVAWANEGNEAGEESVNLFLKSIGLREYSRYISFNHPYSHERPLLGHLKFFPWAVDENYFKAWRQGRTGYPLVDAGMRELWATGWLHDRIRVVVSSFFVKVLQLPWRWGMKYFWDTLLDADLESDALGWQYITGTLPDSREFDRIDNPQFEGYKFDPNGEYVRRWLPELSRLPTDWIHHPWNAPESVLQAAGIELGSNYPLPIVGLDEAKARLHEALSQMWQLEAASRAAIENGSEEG

`Nc1ncnc2c1ncn2[C@@H]1O[C@H](COP(=O)(O)OP(=O)(O)OP(=O)(O)O)[C@@H](O)[C@H]1O` [ATP] was tested, and the Kd [1] was 1400 ± 600 nM and the “UV-Vis and transient absorption with ATP (control experiments)” value [2] was “we have not found any significant differences in their photoreactions”.
